Holding throughout (assay): Kinase panel (mobility shift)
Common to all, as to format: biochemical

For assay [1], the target named is T1, AXL (Homo sapiens, UniProt P30530).
T1 sequence (P30530 26-894): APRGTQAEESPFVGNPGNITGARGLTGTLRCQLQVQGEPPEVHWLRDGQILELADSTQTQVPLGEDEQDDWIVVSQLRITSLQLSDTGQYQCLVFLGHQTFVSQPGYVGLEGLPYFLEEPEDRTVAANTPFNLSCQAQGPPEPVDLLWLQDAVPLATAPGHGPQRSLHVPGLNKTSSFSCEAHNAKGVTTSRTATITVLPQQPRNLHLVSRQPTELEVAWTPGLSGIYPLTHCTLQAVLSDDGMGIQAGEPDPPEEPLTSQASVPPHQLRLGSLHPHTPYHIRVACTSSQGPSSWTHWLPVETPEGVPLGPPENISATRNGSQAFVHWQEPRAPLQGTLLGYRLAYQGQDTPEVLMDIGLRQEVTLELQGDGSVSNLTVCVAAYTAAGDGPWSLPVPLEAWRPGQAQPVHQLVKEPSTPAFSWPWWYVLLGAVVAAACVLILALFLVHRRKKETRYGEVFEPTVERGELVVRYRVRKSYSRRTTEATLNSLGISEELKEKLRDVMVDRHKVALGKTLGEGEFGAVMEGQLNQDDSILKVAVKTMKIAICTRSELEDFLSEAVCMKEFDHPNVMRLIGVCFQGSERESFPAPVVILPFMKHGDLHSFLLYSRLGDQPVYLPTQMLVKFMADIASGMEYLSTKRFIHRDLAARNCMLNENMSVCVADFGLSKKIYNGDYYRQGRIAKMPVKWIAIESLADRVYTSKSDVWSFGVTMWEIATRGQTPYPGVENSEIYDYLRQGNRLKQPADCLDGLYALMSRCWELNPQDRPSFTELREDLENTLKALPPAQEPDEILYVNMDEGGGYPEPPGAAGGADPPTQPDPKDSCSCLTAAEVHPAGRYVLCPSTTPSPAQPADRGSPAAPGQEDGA
In short, it runs like this: (§1)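 Tested at a single 5 um concentration within a 299-kinase panel, compounds were scored by electrophoretic mobility shift of a fluorescent substrate into product. Categories: A, 95% or greater; B, 90%-94%; C, 80%-89%.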

In assay [2] the target is EPH-A4 (Homo sapiens, UniProt P54764). The procedure, abridged: as §1
Sequence of EPH-A4 (P54764 20-986, species assumed): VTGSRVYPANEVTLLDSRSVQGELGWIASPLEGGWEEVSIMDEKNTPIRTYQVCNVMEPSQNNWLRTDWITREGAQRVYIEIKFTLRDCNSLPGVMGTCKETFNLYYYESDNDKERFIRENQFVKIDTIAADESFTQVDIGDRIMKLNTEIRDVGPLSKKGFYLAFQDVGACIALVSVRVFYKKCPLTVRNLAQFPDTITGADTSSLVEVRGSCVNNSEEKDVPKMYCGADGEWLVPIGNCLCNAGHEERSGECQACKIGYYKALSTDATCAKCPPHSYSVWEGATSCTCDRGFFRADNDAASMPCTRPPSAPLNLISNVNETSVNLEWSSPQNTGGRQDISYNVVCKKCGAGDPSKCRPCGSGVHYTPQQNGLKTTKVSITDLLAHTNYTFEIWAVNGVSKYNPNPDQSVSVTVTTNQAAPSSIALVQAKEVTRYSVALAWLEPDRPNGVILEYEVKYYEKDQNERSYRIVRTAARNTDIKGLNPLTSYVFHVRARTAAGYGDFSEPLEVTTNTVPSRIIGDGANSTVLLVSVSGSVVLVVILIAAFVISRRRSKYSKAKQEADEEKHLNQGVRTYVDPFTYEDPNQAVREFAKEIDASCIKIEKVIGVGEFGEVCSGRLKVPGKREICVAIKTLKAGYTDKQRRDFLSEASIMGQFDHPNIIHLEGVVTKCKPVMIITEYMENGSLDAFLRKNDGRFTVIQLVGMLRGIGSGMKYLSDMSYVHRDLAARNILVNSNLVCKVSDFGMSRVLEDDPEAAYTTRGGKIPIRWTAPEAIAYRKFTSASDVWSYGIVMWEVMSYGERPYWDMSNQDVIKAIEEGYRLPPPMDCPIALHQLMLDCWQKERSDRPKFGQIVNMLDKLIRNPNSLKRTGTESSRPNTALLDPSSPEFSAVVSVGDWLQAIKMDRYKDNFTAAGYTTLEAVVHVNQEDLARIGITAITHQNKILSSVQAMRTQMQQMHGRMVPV
For assay [3], the target named is KIT (Homo sapiens, UniProt P10721). The procedure, abridged: as §1
Sequence of KIT (P10721 26-976, species assumed): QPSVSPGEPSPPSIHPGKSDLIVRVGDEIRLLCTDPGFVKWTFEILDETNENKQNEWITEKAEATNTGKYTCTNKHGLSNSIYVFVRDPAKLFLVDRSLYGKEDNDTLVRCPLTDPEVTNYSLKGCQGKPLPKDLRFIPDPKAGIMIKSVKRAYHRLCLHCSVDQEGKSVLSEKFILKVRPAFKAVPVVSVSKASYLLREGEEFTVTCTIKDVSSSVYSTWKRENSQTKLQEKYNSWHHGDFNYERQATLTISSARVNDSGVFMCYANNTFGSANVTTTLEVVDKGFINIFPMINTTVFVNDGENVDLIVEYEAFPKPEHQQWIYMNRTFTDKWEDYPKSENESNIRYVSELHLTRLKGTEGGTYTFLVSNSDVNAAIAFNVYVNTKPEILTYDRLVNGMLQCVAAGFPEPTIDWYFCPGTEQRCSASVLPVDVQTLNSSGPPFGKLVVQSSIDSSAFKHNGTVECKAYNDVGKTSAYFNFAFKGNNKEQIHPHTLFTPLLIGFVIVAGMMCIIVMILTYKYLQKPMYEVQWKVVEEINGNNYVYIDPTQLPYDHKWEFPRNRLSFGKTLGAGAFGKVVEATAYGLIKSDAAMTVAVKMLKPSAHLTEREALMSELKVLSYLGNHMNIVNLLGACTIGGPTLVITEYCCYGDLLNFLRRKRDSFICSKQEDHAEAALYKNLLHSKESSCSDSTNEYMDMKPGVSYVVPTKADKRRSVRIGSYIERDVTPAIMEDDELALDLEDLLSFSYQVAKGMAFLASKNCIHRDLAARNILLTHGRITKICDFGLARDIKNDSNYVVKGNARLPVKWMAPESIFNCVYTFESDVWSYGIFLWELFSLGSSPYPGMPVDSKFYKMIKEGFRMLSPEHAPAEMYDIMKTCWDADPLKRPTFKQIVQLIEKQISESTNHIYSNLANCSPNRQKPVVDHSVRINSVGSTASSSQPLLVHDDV
The target of assay [4] is T2, MUSK (Homo sapiens, UniProt O15146).
T2 sequence (O15146 24-869): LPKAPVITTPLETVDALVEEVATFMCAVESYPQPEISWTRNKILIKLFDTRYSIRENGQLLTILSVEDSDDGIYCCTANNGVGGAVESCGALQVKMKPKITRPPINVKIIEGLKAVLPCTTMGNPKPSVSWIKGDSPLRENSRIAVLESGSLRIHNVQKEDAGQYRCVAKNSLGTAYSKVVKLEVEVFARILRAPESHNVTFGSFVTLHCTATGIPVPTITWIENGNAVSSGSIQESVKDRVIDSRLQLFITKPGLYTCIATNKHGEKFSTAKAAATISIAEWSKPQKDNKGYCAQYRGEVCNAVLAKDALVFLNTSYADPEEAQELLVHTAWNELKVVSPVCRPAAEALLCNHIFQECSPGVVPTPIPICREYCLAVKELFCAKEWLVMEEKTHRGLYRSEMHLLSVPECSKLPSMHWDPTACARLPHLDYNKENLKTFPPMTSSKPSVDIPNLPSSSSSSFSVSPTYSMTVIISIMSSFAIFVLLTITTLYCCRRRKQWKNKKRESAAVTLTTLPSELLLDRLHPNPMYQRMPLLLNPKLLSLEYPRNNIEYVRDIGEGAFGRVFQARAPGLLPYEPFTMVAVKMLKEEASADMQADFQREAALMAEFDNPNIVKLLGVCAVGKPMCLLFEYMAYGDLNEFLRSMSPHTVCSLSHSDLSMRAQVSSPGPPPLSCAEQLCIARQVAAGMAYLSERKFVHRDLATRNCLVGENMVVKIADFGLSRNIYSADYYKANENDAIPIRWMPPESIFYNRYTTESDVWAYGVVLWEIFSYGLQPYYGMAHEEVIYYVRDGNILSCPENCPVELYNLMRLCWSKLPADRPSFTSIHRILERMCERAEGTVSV
The procedure, abridged:
as §1

The target in assay [5] is P38-a (Homo sapiens, UniProt Q16539). The note with it: at 5 um. In short, it runs like this:
as §1

Assay [6] has as its target T3, TYRO3 (Homo sapiens, UniProt Q06418).
T3 sequence (Q06418 41-890): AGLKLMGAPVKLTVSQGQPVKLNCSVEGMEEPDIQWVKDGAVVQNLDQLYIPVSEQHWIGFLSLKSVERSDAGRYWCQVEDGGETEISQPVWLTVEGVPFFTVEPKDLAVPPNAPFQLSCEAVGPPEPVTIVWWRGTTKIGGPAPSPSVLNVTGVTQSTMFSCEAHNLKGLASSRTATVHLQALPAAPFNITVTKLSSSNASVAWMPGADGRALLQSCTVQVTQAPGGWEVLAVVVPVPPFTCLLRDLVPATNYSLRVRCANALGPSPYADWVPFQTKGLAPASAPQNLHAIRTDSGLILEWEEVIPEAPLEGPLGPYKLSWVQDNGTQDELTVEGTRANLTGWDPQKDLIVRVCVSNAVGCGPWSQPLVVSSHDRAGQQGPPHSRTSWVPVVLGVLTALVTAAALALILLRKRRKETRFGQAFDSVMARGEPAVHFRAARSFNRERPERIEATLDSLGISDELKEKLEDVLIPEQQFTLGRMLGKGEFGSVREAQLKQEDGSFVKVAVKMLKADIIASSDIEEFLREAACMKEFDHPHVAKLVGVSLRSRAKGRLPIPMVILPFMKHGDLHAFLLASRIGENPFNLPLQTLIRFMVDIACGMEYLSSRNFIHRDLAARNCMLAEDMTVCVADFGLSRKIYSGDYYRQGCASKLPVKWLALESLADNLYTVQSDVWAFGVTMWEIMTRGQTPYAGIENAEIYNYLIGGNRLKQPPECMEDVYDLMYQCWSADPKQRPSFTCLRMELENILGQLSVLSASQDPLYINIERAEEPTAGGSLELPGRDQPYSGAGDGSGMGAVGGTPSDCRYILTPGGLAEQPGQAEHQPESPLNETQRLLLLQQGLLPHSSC
In short, it runs like this: as §1

Where only a bound is given, the exact number is not on record here.

The results in this text go back to patent US11629143B2, “HipK4 inhibitors and uses thereof” (Vibliome Therapeutics, LLC, priority 2020, dated 2023).

Sequence of P38-a (Q16539 whole entry): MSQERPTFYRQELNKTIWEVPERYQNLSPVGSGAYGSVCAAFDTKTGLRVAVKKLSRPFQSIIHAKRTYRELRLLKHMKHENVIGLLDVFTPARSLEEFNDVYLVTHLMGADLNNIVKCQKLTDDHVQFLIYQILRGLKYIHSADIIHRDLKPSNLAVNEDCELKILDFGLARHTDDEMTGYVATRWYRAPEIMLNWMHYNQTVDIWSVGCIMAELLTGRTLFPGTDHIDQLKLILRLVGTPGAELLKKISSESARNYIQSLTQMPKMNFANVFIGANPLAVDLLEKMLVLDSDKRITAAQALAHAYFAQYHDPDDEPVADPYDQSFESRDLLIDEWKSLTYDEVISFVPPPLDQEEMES

Consider `CSc1nc(C(=O)Nc2ccc(Oc3ccnc(N)c3Cl)c(F)c2)c(-c2ccc(F)cc2)o1` [Compound 1], for which the inhibition at 5 µM is under 50% in assay [1]; under 50% in assay [2]; under 50% in assay [3]; under 50% in assay [4]; 50 to 79% in assay [6]. The “inhibition of kinase activity, P38-a” value in assay [5] is listed as “D (category D for 50-79)”.
As to `CSc1nc(C(=O)Nc2ccc(Oc3cc4cnn(C)c4cc3Br)c(F)c2)c(-c2ccc(F)cc2)o1` [Compound 2], the inhibition at 5 µM in assay [1] is under 50%; in assay [2], 50 to 79%; in assay [3], under 50%; in assay [4], under 50%; in assay [6], under 50%. For the same molecule, the “inhibition of kinase activity, P38-a” value in assay [5] is “D (category D for 50-79)”.
With `CNC(=O)c1cc(Oc2ccc(NC(=O)c3nc(SC)oc3-c3ccc(F)cc3Cl)cc2)ccn1` [Compound 3], the inhibition at 5 µM in assay [1] was 80 to 89%; in assay [2], under 50%; in assay [3] it was 50 to 79%; in assay [4], 50 to 79%; in assay [6], 90 to 94%. Also, the “inhibition of kinase activity, P38-a” value in assay [5] is listed as “E (category E is less than 50%)”.
Take `CNC(=O)c1cc(Oc2ccc(NC(=O)c3nc(SC)oc3-c3ccc(F)c(F)c3)cc2)ccn1` [Compound 4]: the inhibition at 5 µM in assay [1] was under 50%; in assay [2], under 50%; in assay [3], 50 to 79%; in assay [4], under 50%; in assay [6], 50 to 79%. Besides, the “inhibition of kinase activity, P38-a” value in assay [5] was “C (C=80%-89% at 5 um)”.
As to `CNC(=O)c1cc(Oc2ccc(NC(=O)c3nc(SC)oc3-c3ccc(Cl)s3)cc2)ccn1` [Compound 5], the inhibition at 5 µM in assay [1] was under 50%; in assay [2], under 50%; in assay [3], under 50%; in assay [4], under 50%; in assay [6] it was 80 to 89%. The “inhibition of kinase activity, P38-a” value in assay [5] is listed as “E (category E is less than 50%)”.
With `CNC(=O)c1cc(Oc2ccc(NC(=O)c3nc(SC)oc3-c3ccc(F)cc3F)cc2)ccn1` [Compound 6], the inhibition at 5 µM in assay [1] was 80 to 89%; in assay [2], under 50%; in assay [3] it was 80 to 89%; in assay [4] it was under 50%; in assay [6], at least 95%. Also, the “inhibition of kinase activity, P38-a” value in assay [5] is reported as “E (category E is less than 50%)”.
On to `CNC(=O)c1cc(Oc2ccc(NC(=O)c3nc(SC)oc3-c3ccc(OC)cc3)cc2)ccn1` [Compound 7], for which the inhibition at 5 µM in assay [1], in assay [2], in assay [3], in assay [4] and in assay [6] was under 50% each time. The “inhibition of kinase activity, P38-a” value in assay [5] is on record as “E (category E is less than 50%)”.
On to `CSc1nc(C(=O)Nc2ccc(Oc3ccnc(-c4cnn(C)c4)c3)c(F)c2)c(-c2ccc(F)cc2)o1` [Compound 11], for which the inhibition at 5 µM in assay [1] was 90 to 94%; in assay [2] it was 90 to 94%; in assay [3], 80 to 89%; in assay [4], 50 to 79%; in assay [6] it was at least 95%. The “inhibition of kinase activity, P38-a” value in assay [5] is “B (B=90%-94% at 5 um)”.
Turning to `CNC(=O)c1cc(Oc2ccc(NC(=O)c3nc(SC)oc3-c3ccc(F)cc3F)cc2F)ccn1` [Compound 12], the inhibition at 5 µM lay within 50 to 79% in assay [1]; 50 to 79% in assay [2]; 50 to 79% in assay [3]; 50 to 79% in assay [4]; 90 to 94% in assay [6]. Further, in assay [5], the “inhibition of kinase activity, P38-a” value is on record as “D (category D for 50-79)”.
For the molecule `CNC(=O)c1cc(Oc2ccc(NC(=O)c3nc(S(C)(=O)=O)sc3-c3ccc(F)cc3)cc2F)ccn1` [Compound 13], the inhibition at 5 µM was 80 to 89% in assay [1]; 50 to 79% in assay [2]; under 50% in assay [3]; 50 to 79% in assay [4]; 80 to 89% in assay [6]. Also, the “inhibition of kinase activity, P38-a” value in assay [5] is recorded as “E (category E is less than 50%)”.
As to `CNC(=O)c1cc(Oc2ccc(NC(=O)c3nc(NC)oc3-c3ccc(F)cc3)cc2F)ccn1` [Compound 14], the inhibition at 5 µM in assay [1] is under 50%; in assay [2], 50 to 79%; in assay [3], 50 to 79%; in assay [4], 50 to 79%; in assay [6] it was 80 to 89%. For the same molecule, the “inhibition of kinase activity, P38-a” value in assay [5] is listed as “D (category D for 50-79)”.
Consider `CNC(=O)c1cc(Oc2ccc(NC(=O)c3nc(OC)oc3-c3ccc(F)cc3)cc2F)ccn1` [Compound 15], for which the inhibition at 5 µM in assay [1] is 50 to 79%; in assay [2] it was 50 to 79%; in assay [3], 50 to 79%; in assay [4], under 50%; in assay [6] it was 90 to 94%. In assay [5], the “inhibition of kinase activity, P38-a” value was “D (category D for 50-79)”.
On to `CNC(=O)c1cc(Oc2ccc(NC(=O)c3nc(SC)oc3-c3ccc(F)s3)cc2F)ccn1` [Compound 16], for which the inhibition at 5 µM in assay [1], in assay [2], in assay [3], in assay [4] and in assay [6] was under 50% in each case. In addition, the “inhibition of kinase activity, P38-a” value in assay [5] is reported as “E (category E is less than 50%)”.
For `CNC(=O)c1cc(Oc2ccc(NC(=O)c3nc(NC)oc3-c3ccc(F)s3)cc2F)ccn1` [Compound 17], the inhibition at 5 µM in assay [1], in assay [2], in assay [3], in assay [4] and in assay [6] was under 50% throughout. In addition, the “inhibition of kinase activity, P38-a” value in assay [5] is given as “E (category E is less than 50%)”.
